Measured values as given in US20070099259A1, “ELECTROCHEMICAL ASSAY FOR THE IDENTIFICATION OF MICROORGANISMS” (RAPID LABORATORY MICROSYSTEMS INC., priority 2003, published 2007).
Like-named read-outs stand apart in the source and are kept apart here.

How the values were obtained:
P. vulgaris ATCC6380 = assay: Relative respiratory activity with 22 effectors (Example 3); assay type: cell-based, Proteus vulgaris; conditions: Proteus vulgaris; for activity at 20000 µM: effector 20 mM
Source text: (§1) In this example, each microorganism is subjected to 22 different effector compounds in addition to control measurements. […] For each microorganism, duplicate measurements were made of 22 different effector compounds. In addition, duplicate measurements were made a control test containing no effector compound. One additional measurement was made of a control solution containing the microorganism with ferricyanide but without effector or DCIP.
(§2) In this example, each normalized data set containing duplicate measurements for each of 22 effector compounds is referenced to the duplicate internal controls to allow batch-to-batch comparison. The obtained signals of charge per unit electrode area for the duplicate control measurements are averaged and set at 100% respiratory cycle activity. […] The data set used to generate pattern recognition plots consists of 5 replicate batches (each batch containing duplicate measurements for each of 22 effector compounds) for each cell culture (10 strains). This is used to generate a 50 (columns)×22 (rows) matrix. The matrix is imported into MATLAB (Version 6.0). Factor analysis is performed using the MATLAB Chemometric Toolbox (Version 2.3) and involves the generation of reduced eigenvectors to determine the optimal number of factors, examination of the resulting residuals plots for randomness, and the generation of scores for the first four principle components.

S. aureus ATCC6538P = assay: as above; assay type: cell-based, Staphylococcus aureus; conditions: Staphylococcus aureus, ATCC6538P; for activity at 20000 µM: effector 20 mM; for activity at 10000 µM: read-out: relative %-respiratory activity
Source text: as §1, §2

E. aerogenes ATCC13048e = assay: as above; assay type: cell-based, Enterobacter aerogenes; conditions: Klebsiella aerogenes, ATCC13048E; for activity at 20000 µM: effector 20 mM; for activity at 10000 µM: read-out: relative %-respiratory activity
Source text: as §1, §2

S. cerevisiae = assay: as above; assay type: cell-based, Saccharomyces cerevisiae; conditions: Saccharomyces cerevisiae; for activity at 20000 µM: effector 20 mM; for activity at 10000 µM: read-out: relative %-respiratory activity
Source text: as §1, §2

E. coli HB101 = assay: as above; assay type: cell-based; conditions: Escherichia coli; for activity at 20000 µM: effector 20 mM
Source text: as §1, §2

E. coli JM105 = assay: as above; assay type: cell-based; conditions: Escherichia coli; for activity at 20000 µM: effector 20 mM
Source text: as §1, §2

E. coli Neotype = assay: as above; assay type: cell-based; conditions: Escherichia coli; for activity at 20000 µM: effector 20 mM; for activity at 10000 µM: read-out: relative %-respiratory activity
Source text: as §1, §2

E. coli B = assay: as above; assay type: cell-based; conditions: Escherichia coli; for activity at 20000 µM: effector 20 mM; for activity at 10000 µM: read-out: relative %-respiratory activity
Source text: as §1, §2

P. aeruginosa = assay: as above; assay type: cell-based, Pseudomonas aeruginosa; conditions: Pseudomonas aeruginosa; for activity at 20000 µM: effector 20 mM; for activity at 10000 µM: read-out: relative %-respiratory activity
Source text: as §1, §2

E. faecalis = assay: as above; assay type: cell-based, Enterococcus faecalis; conditions: Enterococcus faecalis; for activity at 20000 µM: effector 20 mM; for activity at 10000 µM: read-out: relative %-respiratory activity
Source text: as §1, §2

[1] = system: Staphylococcus aureus ATCC 6538P; assay: Respiration assay (Example 1), electrochemical ferricyanide/DCIP mediator consumption; assay type: cell-based; conditions: effector 10 mM; for slope: 5 μM DCIP, 50 mM ferricyanide, 35° C.; for normalized slope: area normalized; for relative activity: buffer set as 100%
Experimental: (§3) The ferricyanide solution is added so that the final ferricyanide concentrations is 50 mM.
(§4) The bacterial suspensions were adjusted to a MacFarland Standard of 5.0 (5.0×10sup.8 cfu/mL) or an optical density of 1.2 measured at 625 nm and cell growth was stopped by cooling the bacterial suspension for a minimum of 15 min in an ice-bath.

[2] = system: Enterobacter aerogenes ATCC 13048e; assay: as above; assay type: cell-based; conditions: effector 10 mM; for slope: 5 μM DCIP, 50 mM ferricyanide, 35° C.; for normalized slope: area normalized; for relative activity: buffer set as 100%
Experimental: as §3, §4

[3] = ATCC6380, 5 μM DCIP, no effector = 100%, n = 20
[4] = 5 μM DCIP, no effector = 100%, n = 20
[5] = 5 μM DCIP, no effector = 100%, n = 26
[6] = 5 μM DCIP, no effector = 100%, n = 10
[7] = HB101, 5 μM DCIP, no effector = 100%, n = 18
[8] = JM105, 5 μM DCIP, no effector = 100%, n = 10
[9] = 5 μM DCIP, no effector = 100%, n = 18
[10] = ATCC6380, read-out: relative %-respiratory activity
[11] = HB101, read-out: relative %-respiratory activity
[12] = JM105, read-out: relative %-respiratory activity
[13] = effector 10 mM, 5 μM DCIP, no effector = 100%, n = 26
[14] = effector 10 mM, 5 μM DCIP, no effector = 100%, n = 10
[15] = effector 5 mM, 5 μM DCIP, no effector = 100%, n = 20
[16] = effector 5 mM, 5 μM DCIP, no effector = 100%, n = 26
[17] = effector 5 mM, 5 μM DCIP, no effector = 100%, n = 10
[18] = effector 10 mM, 5 μM DCIP, no effector = 100%, n = 20

Row | SMILES | activity at 20000 µM (P. vulgaris ATCC6380; [3]) | activity at 20000 µM (S. aureus ATCC6538P; [4]) | activity at 20000 µM (E. aerogenes ATCC13048e; [5]) | activity at 20000 µM (S. cerevisiae; [6]) | activity at 20000 µM (E. coli HB101; [7]) | activity at 20000 µM (E. coli JM105; [8]) | activity at 20000 µM (E. coli Neotype; [5]) | activity at 20000 µM (E. coli B; [6]) | activity at 20000 µM (P. aeruginosa; [9]) | activity at 20000 µM (E. faecalis; [4]) | activity at 10000 µM (P. vulgaris ATCC6380; [10]) | activity at 10000 µM (S. aureus ATCC6538P) | activity at 10000 µM (E. aerogenes ATCC13048e) | activity at 10000 µM (S. cerevisiae) | activity at 10000 µM (E. coli HB101; [11]) | activity at 10000 µM (E. coli JM105; [12]) | activity at 10000 µM (E. coli Neotype) | activity at 10000 µM (P. aeruginosa) | activity at 10000 µM (E. faecalis) | activity at 10000 µM (E. coli B; [14]) | further results
1 | O=C[C@H](O)[C@@H](O)[C@H](O)CO [D-xylose] | 178% | 128% | 149% | 116% | 110% | 134% | 110% | 102% | 113% | 128% | – | – | – | – | – | – | – | – | – | – | –
2 | O=CO [Formic acid] | – | – | – | – | – | – | – | – | – | – | 222% | 298% | 124% | 132% | 163% | 136% | 114% | 120% | 157% | – | activity at 10000 µM (E. coli B): 132%
3 | N=C(N)NCCC[C@H](N)C(=O)O [L-arginine] | – | – | – | – | – | – | – | – | – | – | 149% | 132% | 129% | 139% | 114% | 163% | – | 155% | 130% | 137% | activity at 10000 µM (E. coli Neotype; [13]): 114%; slope [1]: 9.1 μC/min; normalized slope [1]: 5.3 μC/min*mm^2; relative activity [1]: 100%
4 | NCCCC[C@H](N)C(=O)O [L-lysine] | – | – | – | – | – | – | – | – | – | – | 219% | 159% | 125% | 240% | 125% | 118% | 101% | 186% | 243% | – | activity at 10000 µM (E. coli B): 100%
5 | NCCC[C@H](N)C(=O)O [L-ornithine] | – | – | – | – | – | – | – | – | – | – | – | – | – | – | – | – | – | – | – | – | activity at 5000 µM (P. vulgaris ATCC6380; ATCC6380, effector 5 mM, 5 μM DCIP, no effector = 100%, n = 20): 151%; activity at 5000 µM (S. aureus ATCC6538P; [15]): 154%; activity at 5000 µM (E. aerogenes ATCC13048e; [16]): 142%; activity at 5000 µM (S. cerevisiae; [17]): 137%; activity at 5000 µM (E. coli HB101; HB101, effector 5 mM, 5 μM DCIP, no effector = 100%, n = 18): 114%; activity at 5000 µM (E. coli JM105; JM105, effector 5 mM, 5 μM DCIP, no effector = 100%, n = 10): 165%; activity at 5000 µM (E. coli Neotype; [16]): 134%; activity at 5000 µM (E. coli B; [17]): 135%; activity at 5000 µM (P. aeruginosa; effector 5 mM, 5 μM DCIP, no effector = 100%, n = 18): 148%; activity at 5000 µM (E. faecalis; [15]): 138%
6 | C[C@H](O)[C@H](O)[C@@H](O)[C@@H](O)C=O [L-rhamnose] | 145% | 101% | 110% | 124% | 103% | 116% | 105% | 119% | 94% | 105% | – | – | – | – | – | – | – | – | – | – | –
7 | N[C@@H](Cc1c[nH]c2ccccc12)C(=O)O [L-tryptophan] | – | – | – | – | – | – | – | – | – | – | 521% | 139% | 126% | 188% | 129% | 133% | 93% | 170% | 232% | 98% | –
8 | CC(O)C(=O)O (stereo not drawn) [Lactic acid, lactic acid] | – | – | – | – | – | – | – | – | – | – | – | – | – | – | – | – | – | – | – | 192% | activity at 10000 µM (P. vulgaris ATCC6380; ATCC6380, effector 10 mM, 5 μM DCIP, no effector = 100%, n = 20, read-out: relative %-respiratory activity): 457%; activity at 10000 µM (S. aureus ATCC6538P; [18]): 622%; activity at 10000 µM (E. aerogenes ATCC13048e; [13]): 182%; activity at 10000 µM (S. cerevisiae; [14]): 123%; activity at 10000 µM (E. coli HB101; HB101, effector 10 mM, 5 μM DCIP, no effector = 100%, n = 18, read-out: relative %-respiratory activity): 171%; activity at 10000 µM (E. coli JM105; JM105, effector 10 mM, 5 μM DCIP, no effector = 100%, n = 10, read-out: relative %-respiratory activity): 303%; activity at 10000 µM (E. coli Neotype; [13]): 126%; activity at 10000 µM (P. aeruginosa; effector 10 mM, 5 μM DCIP, no effector = 100%, n = 18): 122%; activity at 10000 µM (E. faecalis; [18]): 118%; slope [2]: 27.7 μC/min; normalized slope [2]: 16.3 μC/min*mm^2; relative activity [2]: 169%; slope [1]: 24.8 μC/min; normalized slope [1]: 14.6 μC/min*mm^2; relative activity [1]: 275%
9 | OC[C@H]1O[C@@](CO)(O[C@H]2O[C@H](CO)[C@@H](O)[C@H](O)[C@H]2O)[C@@H](O)[C@@H]1O [Sucrose] | 164% | 290% | 188% | 161% | 110% | 121% | 122% | 124% | 117% | 465% | – | – | – | – | – | – | – | – | – | – | –
10 | O=[N+]([O-])[O-].[K+] [nitrate, potassium nitrate] | – | – | – | – | – | – | – | – | – | – | – | – | – | – | – | – | – | – | – | – | slope [2]: 3.7 μC/min; normalized slope [2]: 2.2 μC/min*mm^2; relative activity [2]: 23%; slope [1]: 6.9 μC/min; normalized slope [1]: 4.1 μC/min*mm^2; relative activity [1]: 76%
